Source: patent publication US10633338B2, “Binding Function 3 (BF3) site compounds as therapeutics and methods for their use” (THE UNIVERSITY OF BRITISH COLUMBIA, priority 2014, dated 2020)
Read-outs that look alike come from different tables or passages of the source.

Target: T1, androgen receptor (AR) (Homo sapiens, UniProt P10275, T878A)
T1 construct: stably transfected eGFP-expressing LNCaP human prostate cancer cells (LN-ARR2PB-eGFP) containing an androgen responsive probasin-derived promoter; endogenous in cells; host or cells: LNCaP (LN-ARR2PB-eGFP)
T1 sequence (P10275 1-920 T878A): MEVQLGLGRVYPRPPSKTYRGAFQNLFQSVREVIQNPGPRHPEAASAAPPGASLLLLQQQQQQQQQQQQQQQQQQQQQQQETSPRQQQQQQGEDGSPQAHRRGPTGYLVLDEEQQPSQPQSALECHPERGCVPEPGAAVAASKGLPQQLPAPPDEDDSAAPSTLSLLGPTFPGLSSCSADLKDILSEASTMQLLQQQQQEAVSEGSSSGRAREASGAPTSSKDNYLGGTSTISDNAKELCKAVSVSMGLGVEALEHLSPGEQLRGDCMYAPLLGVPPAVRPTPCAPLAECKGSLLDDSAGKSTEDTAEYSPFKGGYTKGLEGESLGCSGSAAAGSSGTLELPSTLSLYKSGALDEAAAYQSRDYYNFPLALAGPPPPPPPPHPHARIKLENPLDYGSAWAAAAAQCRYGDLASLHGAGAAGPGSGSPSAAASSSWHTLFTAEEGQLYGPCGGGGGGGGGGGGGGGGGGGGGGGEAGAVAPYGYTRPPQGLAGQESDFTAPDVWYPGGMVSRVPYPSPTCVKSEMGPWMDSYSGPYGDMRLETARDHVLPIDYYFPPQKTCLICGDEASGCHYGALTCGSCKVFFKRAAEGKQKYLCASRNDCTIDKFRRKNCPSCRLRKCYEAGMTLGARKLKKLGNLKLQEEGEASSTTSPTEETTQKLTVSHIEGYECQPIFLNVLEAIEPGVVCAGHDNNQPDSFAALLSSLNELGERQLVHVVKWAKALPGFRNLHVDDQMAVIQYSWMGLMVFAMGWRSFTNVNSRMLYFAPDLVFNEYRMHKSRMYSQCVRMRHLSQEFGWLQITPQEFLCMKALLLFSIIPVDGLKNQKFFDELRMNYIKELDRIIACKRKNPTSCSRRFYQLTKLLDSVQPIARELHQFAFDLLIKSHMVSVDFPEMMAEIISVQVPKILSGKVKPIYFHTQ
Assay: eGFP cellular AR transcription assay; call rule not given here
Type: cell-based
Experimental: After 5 days, the cells were plated into a 96-well plate (35,000 cells/well) with 0.1 nM of the synthetic androgen R1881 and increasing concentrations (0-100 μM) of compound.
After 5 days, the cells were plated into a 96-well plate (35,000 cells/well) with 0.1 nM R1881 and increasing concentrations (0-100 μM) of compound.
In this assay, the expression of eGFP is under the control of an androgen responsive probasin-derived promoter and can quantify AR transcriptional activity.

[1] = LN-ARR2PBeGFP LNCaP cells, 0.1 nM R1881, 3 days incubation, read-out: eGFP IC50
[2] = LN-ARR2PB-eGFP LNCaP cells, 0.1 nM R1881, 3 days, 0-100 μM compound, read-out: IC50 (eGFP)
[3] = LN-ARR2PBeGFP LNCaP cells, 0.1 nM R1881, 3 days incubation

`O=C(Nc1nc2ccc(Br)cc2s1)c1ccc(Br)cc1O` [Compound 9040] showed an IC50 [1] of 39.1 µM.

`c1ccc2[nH]c(-c3n[nH]c4ccccc34)nc2c1` [Compound 13036] was tested, and the IC50 [1] was 1.6 µM.

Compound `c1ccc(-c2ccccc2/N=N/c2c[nH]c3ccccc23)cc1` [Compound 13258] has an IC50 [1] of 6.8 µM.

`c1cncc(-c2c[nH]c3cnccc23)c1` [13 581] gave an IC50 [2] of 4.9 µM.

Compound `Cc1[nH]c2ccccc2c1SCc1ccccc1F` [Compound 13224] has an IC50 [1] of 5 µM.

Work on `Clc1ccc(Nc2nc3ccccc3[nH]2)cc1Cl` [Compound 13186] yielded an IC50 [1] of 5 µM.

`CC1(C)c2ccccc2NC1c1c[nH]c2c(F)cccc12` (stereo not drawn) [Compound 13555] was tested, and the “eGFP IC50” value [3] was “Inactive”.

In the case of `C(=C(c1ccccc1)c1ccccc1)c1c[nH]c2ccccc12` [Compound 13250], the IC50 [1] is reported as 4.7 µM.

In the case of `Oc1ccc2c(C3Nc4ccccc4C34CCCCC4)c[nH]c2c1` (stereo not drawn) [13 551], the IC50 [2] is reported as 15.5 µM.

`Fc1cccc2c(-c3ccc4ccccc4n3)c[nH]c12` [13 569] gave an IC50 [2] of 1.6 µM.

`Cc1cccc2c(-c3ccc4cc(F)ccc4n3)c[nH]c12` [Compound 13573] showed an IC50 [1] of 0.56 µM.

`C[C@@H]1Cc2ccccc2N1c1nc2ccccc2o1` [Compound 13261] gave an IC50 [1] of 2.1 µM.

Work on `CC1(C)c2ccccc2NC1c1c[nH]c2c(CO)cccc12` (stereo not drawn) [13 558] yielded an IC50 [2] of 1.6 µM.

With `CC1(C)c2ccccc2NC1c1c[nH]c2cc(OCc3ccccc3)ccc12` (stereo not drawn) [13 544] the IC50 [2] was 11.4 µM.

In the case of `N#Cc1cccc2c(-c3ccc4cccc(Cl)c4n3)c[nH]c12` [Compound 13785], the IC50 [1] is reported as 0.036 µM.

In the case of `CC1(C)c2ccccc2NC1c1c[nH]c2cnccc12` (stereo not drawn) [Compound 13561], the IC50 [1] is reported as 10.7 µM.

With `Cc1ccc(/N=N/c2c[nH]c3ccccc23)cc1` [Compound 13257] the IC50 [1] was 4.2 µM.

For `Fc1cccc2c(-c3ccc4ccccc4n3)c[nH]c12` [Compound 13569], the IC50 [1] was 1.6 µM.

`Cn1cc(CCc2ccncc2)c2ccccc21` [Compound 13202] showed an IC50 [1] of 2.5 µM.

`CNC(=O)c1cccc2nc(-c3c[nH]c4c(N5CCOCC5)c(F)c(F)cc34)ccc12` [Compound 13775] gave an IC50 [1] of 3.7 µM.

For `N#Cc1cccc2c(-c3ccc4ccc(F)cc4n3)c[nH]c12` [Compound 13786], the IC50 [1] was 0.013 µM.

Compound `CC1(C)c2ccccc2NC1c1c[nH]c2cc(OCc3ccccc3)ccc12` (stereo not drawn) [Compound 13544] has an IC50 [1] of 11.4 µM.

`Brc1ccc2c(c1)CC(c1c[nH]c3ccc(Br)cc13)N2` (stereo not drawn) [Compound 13503] gave an IC50 [1] of 4.5 µM.

Work on `CC1(C)c2ccccc2NC1c1c[nH]c2ncccc12` (stereo not drawn) [13 560] yielded an IC50 [2] of 2.3 µM.

Work on `c1ccc(COc2ccc3c(-c4ccc5ccccc5n4)c[nH]c3c2)cc1` [13 589] yielded an IC50 [2] of 5.3 µM.

`CC1(C)c2cc(Br)ccc2NC1c1c[nH]c2cc(O)ccc12` (stereo not drawn) [13 542] showed an IC50 [2] of 5.7 µM.

With `CC1(C)c2ccccc2NC1c1c[nH]c2cnccc12` (stereo not drawn) [13 561] the IC50 [2] was 10.7 µM.

`Brc1ccc2nc(-c3c[nH]c4ccccc34)cn2c1` [Compound 13050] gave an IC50 [1] of 9.72 µM.

`CC1(C)c2ccccc2NC1c1c[nH]c2ccc(N)cc12` (stereo not drawn) [13 538] gave an IC50 [2] of 7.7 µM.

`Cn1cc(-c2ccc3ccccc3n2)c2ccccc21` [Compound 13571] showed an IC50 [1] of 1.1 µM.

Work on `FC(F)(F)c1cccc(/N=C/c2c[nH]c3ccccc23)c1` [Compound 13303] yielded an IC50 [1] of 4.5 µM.

Compound `S=C(c1c[nH]c2ccccc12)N1CCOCC1` [Compound 13243] has an IC50 [1] of 3.9 µM.

For `O=Nn1cc(-c2cc3ccccc3n2N=O)c2ccccc21` [Compound 13206], the IC50 [1] was 1.8 µM.

In the case of `FC(F)(F)c1ccc2c(-c3ccc4ccccc4n3)c[nH]c2c1` [Compound 13580], the IC50 [1] is reported as 2.9 µM.

`Fc1cc2[nH]cc(-c3ccc4cccc(F)c4n3)c2cc1F` [Compound 13651] was tested, and the IC50 [1] was 0.404 µM.

`O=C(Nc1n[nH]c2ccc(Br)cc12)c1cc(Br)ccc1O` [Compound 9026] showed an IC50 [1] of 11.7 µM.

`c1ccc2nc(-n3ncc4ccccc43)ccc2c1` [13 572] was tested, and the IC50 [2] was 0.7 µM.

`Brc1ccc2cc(CCc3cc4ccc(Br)cc4[nH]3)[nH]c2c1` [Compound 9043] showed an IC50 [1] of 2.5 µM.

With `Cc1cccc2c(-c3ccc4c(-c5cncs5)cccc4n3)c[nH]c12` [Compound 13782] the IC50 [1] was 0.11 µM.

Work on `Cc1ccc(/N=C/c2c[nH]c3ccccc23)cc1C` [Compound 13310] yielded an IC50 [1] of 10.3 µM.

For `Cc1cc(-c2c[nH]c3ccccc23)nc2ccccc12` [13 547], the IC50 [2] was 5.6 µM.

For `Cn1cc(-c2ccc3ccccc3n2)c2ccccc21` [13 571], the IC50 [2] was 1.1 µM.

Work on `c1ccc(COc2ccc3c(C4Nc5ccccc5C45CCCCC5)c[nH]c3c2)cc1` (stereo not drawn) [13 550] yielded an IC50 [2] of 11.8 µM.

In the case of `O=C(Nc1cccc(Br)c1O)c1cc2ccc(Br)cc2[nH]1` [Compound 9037], the IC50 [1] is reported as 4.09 µM.

`Oc1ccc(Cn2c(-c3ccc(O)cc3)nc3ccccc32)cc1` [Compound 13029] gave an IC50 (eGFP IC50, LN-ARR2PBeGFP LNCaP cells, 0.1 nM R1881, 3 days incubation) of 3.22 µM.

For `Cc1[nH]c2ccccc2c1-c1ccc2ccccc2n1` [13 570], the IC50 [2] was 20 µM.

Compound `Brc1ccc2c(c1)NC(c1c[nH]c3ccc(Br)cc13)C2` (stereo not drawn) [Compound 13502] has an IC50 [1] of 4.1 µM.

With `Brc1ccc2[nH]c(-c3nc4ccccc4s3)cc2c1` [Compound 13540] the IC50 [1] was 2.5 µM.

With `N#Cc1cn(CCCOc2ccccc2Cl)c2ccccc12` [Compound 13232] the IC50 [1] was 10 µM.

`O=C(/C=C/c1c[nH]c2cc(Br)ccc12)c1cc2ccccc2[nH]1` [Compound 9034] showed an IC50 [1] of 20 µM.

In the case of `Cc1cccc2c1CCN2c1nc2ccccc2o1` [Compound 13260], the IC50 [1] is reported as 2.7 µM.

`Cc1[nH]c2ccccc2c1-c1ccc2ccccc2n1` [Compound 13570] showed an IC50 [1] of 20 µM.

Work on `N#Cc1cc(F)cc2c(-c3ccc4cccc(Cl)c4n3)c[nH]c12` [Compound 13732] yielded an IC50 [1] of 0.42 µM.

Work on `Cc1cccc2c(-c3ccc4c(CO)cccc4n3)c[nH]c12` [Compound 13680] yielded an IC50 [1] of 0.8 µM.

`Clc1ccc(N/N=C2\CCc3ccccc32)cc1Cl` [Compound 13215] gave an IC50 [1] of 2 µM.

`Cc1c(F)ccc2c(-c3ccc4cccc(Br)c4n3)c[nH]c12` [Compound 13787] gave an IC50 [1] of 0.19 µM.

`FC(F)(F)c1ccc2c(-c3ccc4ccccc4n3)c[nH]c2c1` [13 580] showed an IC50 [2] of 2.9 µM.

With `Cc1ccc(F)c2c(-c3ccc4ccccc4n3)c[nH]c12` [Compound 13650] the IC50 [1] was 1.63 µM.

`c1ccc(COc2ccc3c(-c4ccc5ccccc5n4)c[nH]c3c2)cc1` [Compound 13589] was tested, and the IC50 [1] was 5.3 µM.

With `CC1(C)c2ccccc2NC1c1c[nH]c2ccc(N)cc12` (stereo not drawn) [Compound 13538] the IC50 [1] was 7.7 µM.

With `c1ccc(COc2ccc3c(C4Nc5ccccc5C45CCCCC5)c[nH]c3c2)cc1` (stereo not drawn) [Compound 13550] the IC50 [1] was 11.8 µM.

Work on `CNC(=O)c1cccc2nc(-c3c[nH]c4c(F)cccc34)ccc12` [Compound 13713] yielded an IC50 [1] of 0.037 µM.

Work on `CC1(C)c2cc(Br)ccc2NC1c1c[nH]c2cc(O)ccc12` (stereo not drawn) [Compound 13542] yielded an IC50 [1] of 5.7 µM.

`O=c1[nH]c2ccccc2n1-c1nc2ccccc2[nH]1` [Compound 13214] showed an IC50 [1] of 2.2 µM.

In the case of `c1ccc2c(c1)CCN2c1nc2ccccc2o1` [Compound 13220], the IC50 [1] is reported as 0.7 µM.

`Cn1c(-c2c[nH]c3ccccc23)cc2ccccc21` [Compound 13505] showed an IC50 [1] of 3.4 µM.

`c1ccc2c(c1)N=C(c1c[nH]c3ncccc13)C21CCCCC1` [13 559] showed an IC50 [2] of 6.6 µM.

`CC1(C)c2ccccc2NC1c1c[nH]c2c(C(=O)O)cccc12` (stereo not drawn) [Compound 13557] was tested, and the “eGFP IC50” value [3] was “Inactive”.

With `O=C(Nc1nc2cc(Br)ccc2s1)c1cc(Br)ccc1O` [Compound 9028] the IC50 [1] was 10 µM.

In the case of `Cc1cccc2c(-c3ccc4nccnc4n3)c[nH]c12` [Compound 13644], the IC50 [1] is reported as 3 µM.

In the case of `Cn1cc(C2Nc3ccccc3C2(C)C)c2ccccc21` (stereo not drawn) [Compound 13516], the IC50 [1] is reported as 3.6 µM.

`O=C(Nc1n[nH]c2cc(Br)ccc12)c1cc(Br)ccc1O` [Compound 9027] was tested, and the IC50 [1] was 7.72 µM.

In the case of `O=C(Nc1nc2ccc(Br)cc2s1)c1ccccc1O` [Compound 9039], the IC50 [1] is reported as greater than 200 µM.

Work on `Cc1cccn2cc(-c3c[nH]c4ccccc34)nc12` [Compound 13216] yielded an IC50 [1] of 2.8 µM.

`O=C(Nc1ccc(-n2cnc3ccccc32)cc1)c1ccco1` [Compound 6054] gave an IC50 [1] of 3.4 µM.

`Oc1ccc2c(C3Nc4ccccc4C34CCCCC4)c[nH]c2c1` (stereo not drawn) [Compound 13551] showed an IC50 [1] of 15.5 µM.

For `CC1(C)c2cc(Br)ccc2NC1c1c[nH]c2ccc(Br)cc12` (stereo not drawn) [Compound 13512], the IC50 [1] was 6 µM.

`c1ccc2c(c1)N=C(c1c[nH]c3cnccc13)C21CCCCC1` [Compound 13559] was tested, and the IC50 [1] was 6.6 µM.
